Series [1] deals with TLCS-induced acute pancreatitis. The experiment in a line: Intraductal bile acid (TLCS) infusion model of pancreatitis. To be noted: 20 mg/kg. The class given is in vivo, mouse. The text has this:
(§1) • Materials: Caerulein (C9026) and Taurolithocholic acid 3-sulfate disodium salt (TLCS; T0512) was purchased from Sigma. • Animal models: Eight to ten-week male C57BL/6 mice (Jackson Lab) were used according to an animal protocol approved by the Institutional Animal Care and Use Committee of Kyungpook National University. 1. Caerulein-Induced Model of Pancreatitis
(§2) Upon completion of experiments with above-mentioned animal models (1) and (2), pancreas tissue were snap frozen in liquid nitrogen and stored at −80° C. for analysis of trypsin activity, for protein analysis by Western blots and for gene expression analysis by RT-qPCR. Pancreas were dissected and fixed in 10% neutral-buffered formalin and embedded in paraffin. Five-μm sections were prepared and stained with hematoxylin and eosin (H&E). Pancreas injury was determined by measuring serum amylase (K711-100, Biovision), serum lipase (MAK046, Sigma) and pancreatic tissue trypsin activity (Biovision) was determined using commercially available kit.
Upon completion of the experimental timeline, these animals were sacrificed and serum and pancreas tissue samples were collected and analyzed.

The test system of the next series is CYP. Kind of series: CYP inhibition, all isoforms. The class given is in vitro ADME.
Series [2] is described as follows: MS (microsomal stability) h. The class given is in vitro ADME, human.
Series [3] can be described thus: MS (microsomal stability) m. The class given is in vitro ADME, mouse.
Series [4] in a line: MS (microsomal stability) r. The class given is in vitro ADME, rat.
The next series is described as follows: PK. The format is in vivo. To be noted: for Cmax / PK BA % / clearance / half-life / Vd: in vivo; for clearance: read-out: PK CL; for half-life: read-out: PK T½ (converted); for Vd: read-out: PK Vss.
A further series can be described thus: Single dose toxicity. The note with it: in vivo, read-out: Single dose Tax, LD50. The text has this:
Next, the inventors analyzed the toxicity of these compounds in vivo (Table 3). […]

Series [5] addresses T1, hERG (Homo sapiens, UniProt Q12809). Kind of series: hERG current. The format is cell-based. On the technique in general: hERG is a cardiac potassium channel; its block is linked to QT prolongation.
For series [6], the target named is T2, ERRγ (Homo sapiens, UniProt P62508).
T2 sequence (P62508 1-458): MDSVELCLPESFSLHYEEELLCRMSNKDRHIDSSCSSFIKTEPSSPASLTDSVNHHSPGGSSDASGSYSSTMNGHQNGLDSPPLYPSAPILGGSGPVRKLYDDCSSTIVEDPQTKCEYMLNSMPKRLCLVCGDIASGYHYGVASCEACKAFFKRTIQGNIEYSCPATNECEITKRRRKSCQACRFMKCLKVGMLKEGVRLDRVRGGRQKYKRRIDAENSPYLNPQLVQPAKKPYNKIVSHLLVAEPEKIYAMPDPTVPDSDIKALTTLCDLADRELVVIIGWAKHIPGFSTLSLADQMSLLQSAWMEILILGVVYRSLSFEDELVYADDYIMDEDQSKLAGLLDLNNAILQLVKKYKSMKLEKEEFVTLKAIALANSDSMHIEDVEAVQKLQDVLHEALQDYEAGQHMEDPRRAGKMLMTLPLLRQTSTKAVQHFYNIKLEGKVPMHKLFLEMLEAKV
Kind of series: ERRγ functional assay. The format is biochemical.

The target in series [7] is T2, ERRγ. Kind of series: ERRγ binding.
The target in series [8] is T1, hERG. The experiment in a line: hERG binding.
Series [9] in a line: MS (microsomal stability) d. The format is in vitro ADME, dog.
The test system of series [10] is Caerulein-induced acute pancreatitis. The experiment in a line: Caerulein-induced model of acute pancreatitis. The format is in vivo, mouse. To be noted: 20 mg/kg. How it is done: as §1
Acute pancreatitis (AP) was induced by intraperitoneal injections of caerulein at 50 μg/kg/h given 6 times.
as §2
Next, the inventors analyzed the efficacy of the compound of Chemical Formula 1 in vivo using two different animal models of acute pancreatitis. […] They pretreated mice with a single dose of compound of Chemical Formula 1, 24 hours prior to Caerulein challenge. An additional dose of compound of Chemical Formula 1 was administered to the animals at the beginning of Caerulein challenge. Upon completion of the experimental timeline, these animals were sacrificed and serum and pancreas tissue samples were collected and analyzed.

Another series is described as follows: Water solubility. The class given is physicochemical.
Another series can be described thus: Permeability (PAMPA). The class given is in vitro ADME. To be noted: for Papp: PAMPA. A general note: The PAMPA barrier holds no transporters, so it reflects passive diffusion.
A further series in a line: Plasma stability r. The format is in vitro ADME, rat.
Another series in a line: Plasma stability h. The class given is in vitro ADME, human.
In another series the target is ERα (Homo sapiens, UniProt P03372). Kind of series: ERα binding selectivity.
Another series deals with ERRα (Homo sapiens, UniProt P11474). Kind of series: ERRα binding selectivity.
The target of a further series is CYP 2C9 (Homo sapiens, UniProt P11712). Kind of series: CYP inhibition 2C9. The class given is in vitro ADME.
The next series deals with CYP 2C19 (Homo sapiens, UniProt P33261). Kind of series: CYP inhibition 2C19. The class given is in vitro ADME.
The target in a further series is CYP 2D6 (Homo sapiens, UniProt P10635). The experiment in a line: CYP inhibition 2D6. The format is in vitro ADME.
The next series addresses CYP 1A2 (Homo sapiens, UniProt P05177). Kind of series: CYP inhibition 1A2. The format is in vitro ADME.
The next series deals with CYP 3A4 (Homo sapiens, UniProt P08684). Kind of series: CYP inhibition 3A4. The class given is in vitro ADME.

Structures are written as SMILES.

T1 sequence (Q12809 whole entry): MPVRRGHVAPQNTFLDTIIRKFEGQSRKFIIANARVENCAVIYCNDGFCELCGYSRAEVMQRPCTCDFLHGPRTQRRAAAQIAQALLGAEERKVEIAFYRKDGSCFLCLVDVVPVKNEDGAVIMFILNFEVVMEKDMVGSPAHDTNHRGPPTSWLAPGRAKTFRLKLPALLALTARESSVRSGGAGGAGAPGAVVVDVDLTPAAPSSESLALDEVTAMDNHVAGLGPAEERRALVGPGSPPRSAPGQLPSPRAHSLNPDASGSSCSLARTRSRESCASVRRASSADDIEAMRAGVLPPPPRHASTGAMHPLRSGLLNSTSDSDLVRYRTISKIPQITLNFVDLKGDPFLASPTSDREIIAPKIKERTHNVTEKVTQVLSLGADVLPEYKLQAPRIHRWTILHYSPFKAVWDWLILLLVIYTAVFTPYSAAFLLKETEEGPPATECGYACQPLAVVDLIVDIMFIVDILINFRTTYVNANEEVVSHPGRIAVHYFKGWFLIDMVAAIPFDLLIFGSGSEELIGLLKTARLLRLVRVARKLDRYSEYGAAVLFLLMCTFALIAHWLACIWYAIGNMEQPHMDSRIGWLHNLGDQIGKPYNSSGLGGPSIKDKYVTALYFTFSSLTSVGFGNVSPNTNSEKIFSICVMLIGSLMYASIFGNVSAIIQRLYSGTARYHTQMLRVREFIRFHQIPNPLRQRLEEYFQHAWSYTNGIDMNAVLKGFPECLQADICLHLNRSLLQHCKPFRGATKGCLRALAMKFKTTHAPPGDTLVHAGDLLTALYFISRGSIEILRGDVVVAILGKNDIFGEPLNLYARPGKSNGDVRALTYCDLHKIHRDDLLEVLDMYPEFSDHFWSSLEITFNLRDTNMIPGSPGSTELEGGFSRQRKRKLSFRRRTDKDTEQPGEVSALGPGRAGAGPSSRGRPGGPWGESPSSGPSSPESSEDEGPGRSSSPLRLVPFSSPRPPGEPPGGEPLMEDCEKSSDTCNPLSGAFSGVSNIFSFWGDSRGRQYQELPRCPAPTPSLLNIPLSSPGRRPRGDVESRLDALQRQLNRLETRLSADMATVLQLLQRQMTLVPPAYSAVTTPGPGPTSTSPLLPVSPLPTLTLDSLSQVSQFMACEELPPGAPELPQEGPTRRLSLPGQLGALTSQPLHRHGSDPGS
Chain of CYP 1A2 (P05177 whole entry): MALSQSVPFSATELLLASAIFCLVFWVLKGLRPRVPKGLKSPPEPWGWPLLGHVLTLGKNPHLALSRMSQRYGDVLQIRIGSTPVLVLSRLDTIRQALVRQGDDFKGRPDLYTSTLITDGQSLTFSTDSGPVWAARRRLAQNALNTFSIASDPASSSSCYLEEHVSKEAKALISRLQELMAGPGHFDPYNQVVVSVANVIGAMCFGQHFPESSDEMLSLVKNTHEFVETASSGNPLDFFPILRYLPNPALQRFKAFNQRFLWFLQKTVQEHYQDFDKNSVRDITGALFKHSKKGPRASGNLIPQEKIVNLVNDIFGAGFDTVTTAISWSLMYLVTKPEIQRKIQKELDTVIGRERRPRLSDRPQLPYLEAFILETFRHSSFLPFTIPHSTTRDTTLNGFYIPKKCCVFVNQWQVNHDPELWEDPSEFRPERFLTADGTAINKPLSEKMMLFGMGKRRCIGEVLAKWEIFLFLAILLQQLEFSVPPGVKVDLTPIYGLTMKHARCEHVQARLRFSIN
Chain of CYP 2C19 (P33261 whole entry): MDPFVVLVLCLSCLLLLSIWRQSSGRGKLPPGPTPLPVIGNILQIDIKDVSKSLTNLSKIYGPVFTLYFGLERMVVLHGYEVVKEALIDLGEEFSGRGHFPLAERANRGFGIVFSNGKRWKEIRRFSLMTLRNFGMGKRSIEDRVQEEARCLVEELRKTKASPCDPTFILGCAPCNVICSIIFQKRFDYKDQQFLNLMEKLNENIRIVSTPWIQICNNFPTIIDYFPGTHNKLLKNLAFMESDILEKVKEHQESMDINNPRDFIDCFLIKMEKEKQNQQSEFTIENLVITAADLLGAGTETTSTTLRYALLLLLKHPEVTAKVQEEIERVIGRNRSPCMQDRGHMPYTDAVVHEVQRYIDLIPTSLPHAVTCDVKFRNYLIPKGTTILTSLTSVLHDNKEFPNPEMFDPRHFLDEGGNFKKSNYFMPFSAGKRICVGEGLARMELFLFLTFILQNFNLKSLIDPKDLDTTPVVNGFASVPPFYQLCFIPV
Chain of CYP 2D6 (P10635 whole entry): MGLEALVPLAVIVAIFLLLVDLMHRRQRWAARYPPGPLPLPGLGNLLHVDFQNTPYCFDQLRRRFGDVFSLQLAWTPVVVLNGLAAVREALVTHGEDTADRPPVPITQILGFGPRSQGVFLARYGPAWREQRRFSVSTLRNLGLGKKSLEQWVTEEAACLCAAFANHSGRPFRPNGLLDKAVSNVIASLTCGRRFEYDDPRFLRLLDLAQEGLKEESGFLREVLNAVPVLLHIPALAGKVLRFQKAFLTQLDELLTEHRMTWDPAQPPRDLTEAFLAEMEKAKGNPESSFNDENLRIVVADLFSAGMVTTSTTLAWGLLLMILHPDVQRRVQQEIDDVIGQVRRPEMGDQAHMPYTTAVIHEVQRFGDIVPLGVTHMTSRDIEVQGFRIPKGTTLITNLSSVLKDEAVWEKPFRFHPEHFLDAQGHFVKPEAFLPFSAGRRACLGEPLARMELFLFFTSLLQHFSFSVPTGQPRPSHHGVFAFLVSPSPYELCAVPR
Chain of CYP 3A4 (P08684 whole entry): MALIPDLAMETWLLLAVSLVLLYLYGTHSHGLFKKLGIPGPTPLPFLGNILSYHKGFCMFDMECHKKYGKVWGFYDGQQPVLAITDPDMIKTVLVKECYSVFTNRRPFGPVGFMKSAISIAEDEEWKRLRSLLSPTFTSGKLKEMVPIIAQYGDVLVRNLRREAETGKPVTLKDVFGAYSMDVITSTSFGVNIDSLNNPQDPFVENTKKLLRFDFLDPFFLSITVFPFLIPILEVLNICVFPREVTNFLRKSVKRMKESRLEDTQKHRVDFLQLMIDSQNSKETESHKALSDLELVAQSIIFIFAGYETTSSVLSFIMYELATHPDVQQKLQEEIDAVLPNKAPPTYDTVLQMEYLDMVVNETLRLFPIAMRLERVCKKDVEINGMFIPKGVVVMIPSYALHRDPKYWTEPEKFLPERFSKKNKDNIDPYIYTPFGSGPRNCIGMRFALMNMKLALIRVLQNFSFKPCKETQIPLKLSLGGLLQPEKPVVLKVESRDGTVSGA
Chain of CYP 2C9 (P11712 whole entry): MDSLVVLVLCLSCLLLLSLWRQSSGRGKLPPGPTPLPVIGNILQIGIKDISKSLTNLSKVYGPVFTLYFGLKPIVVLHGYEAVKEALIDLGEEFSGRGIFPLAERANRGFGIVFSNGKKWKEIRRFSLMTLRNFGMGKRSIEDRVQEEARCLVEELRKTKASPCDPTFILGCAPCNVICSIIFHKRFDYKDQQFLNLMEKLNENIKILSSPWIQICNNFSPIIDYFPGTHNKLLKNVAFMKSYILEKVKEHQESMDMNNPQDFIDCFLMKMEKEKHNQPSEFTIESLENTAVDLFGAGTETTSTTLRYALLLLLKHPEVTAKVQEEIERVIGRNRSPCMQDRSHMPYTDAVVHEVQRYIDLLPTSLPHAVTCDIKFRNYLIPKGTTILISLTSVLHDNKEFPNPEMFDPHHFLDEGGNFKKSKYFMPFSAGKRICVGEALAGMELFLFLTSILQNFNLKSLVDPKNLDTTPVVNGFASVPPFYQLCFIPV
Chain of ERRα (P11474 whole entry): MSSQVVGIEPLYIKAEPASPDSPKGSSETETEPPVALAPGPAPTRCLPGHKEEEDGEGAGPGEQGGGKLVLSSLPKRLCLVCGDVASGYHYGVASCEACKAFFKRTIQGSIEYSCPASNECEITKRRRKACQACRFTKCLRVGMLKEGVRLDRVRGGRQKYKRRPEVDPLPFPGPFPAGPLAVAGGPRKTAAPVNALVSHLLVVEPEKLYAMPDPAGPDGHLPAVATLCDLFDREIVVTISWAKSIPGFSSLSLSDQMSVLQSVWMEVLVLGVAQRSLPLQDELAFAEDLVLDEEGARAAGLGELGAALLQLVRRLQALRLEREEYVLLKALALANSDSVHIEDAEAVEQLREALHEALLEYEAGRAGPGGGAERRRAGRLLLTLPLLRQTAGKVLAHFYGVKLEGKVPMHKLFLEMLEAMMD
Chain of ERα (P03372 whole entry): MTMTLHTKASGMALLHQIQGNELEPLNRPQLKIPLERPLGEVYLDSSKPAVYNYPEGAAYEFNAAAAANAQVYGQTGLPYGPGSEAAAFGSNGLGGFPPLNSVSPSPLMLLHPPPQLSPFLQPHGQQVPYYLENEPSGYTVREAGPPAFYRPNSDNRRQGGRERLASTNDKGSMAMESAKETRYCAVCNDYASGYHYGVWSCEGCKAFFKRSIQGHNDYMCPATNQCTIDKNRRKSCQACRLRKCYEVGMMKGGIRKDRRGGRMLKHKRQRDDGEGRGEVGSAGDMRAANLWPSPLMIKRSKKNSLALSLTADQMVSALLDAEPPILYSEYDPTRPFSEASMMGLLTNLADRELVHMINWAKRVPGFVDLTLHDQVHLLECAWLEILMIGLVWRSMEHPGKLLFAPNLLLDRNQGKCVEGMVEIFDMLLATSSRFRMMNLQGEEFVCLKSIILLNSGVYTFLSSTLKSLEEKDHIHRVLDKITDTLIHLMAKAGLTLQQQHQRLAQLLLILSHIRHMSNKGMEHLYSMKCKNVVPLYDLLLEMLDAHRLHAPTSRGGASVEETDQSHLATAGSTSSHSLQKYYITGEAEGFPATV

Usually Cmax stands for the peak of the concentration-time curve. The LD50 is the dose at which mortality reaches 50%. One may read the IC50 as the concentration needed to halve the response being measured. Low values mean greater potency, high ones weaker potency. By solubility is commonly meant how much of the substance goes into solution per volume. A higher solubility goes with much dissolved substance. For orientation: Papp means a coefficient for how fast a substance crosses the barrier. A high value points to ready permeation. As to `CC(C)N1CCN(c2ccc(/C(=C(/CCCO)c3ccccc3)c3ccc(O)cc3)cc2)CC1` [DMRC200434, (E)-5-(4-hydroxyphenyl)-5-(4-(4-isopropylpiperazin-1-yl)phenyl)-4-phenylpent-4-en-1-ol], in [1], the “Sodium Taurocholate-induced acute pancreatitis, overall outcome” value is “rescues mice”. For the same molecule, in the series with CYP, the “CYP (% remaining at 10 μM), All” value is recorded as “OK All >64%”. The “MS (% of control) h” value in [2] is 27 % of control. In addition, the “MS (% of control) m” value in series [3] is reported as 20 % of control. In series [4], the “MS (% of control) r” value is reported as 33 % of control. Besides, in the series “PK”, the Cmax came to 208 nM, the “PK BA %” value was 22%, the clearance is 75 mL/min/kg and the half-life is 3.7 h. In addition, in the series “PK”, the Vd is 16 L/kg, the “PK iv AUC” value is listed as 0.42 μMh and the “PK po AUC” value is 0.82 μMh. Moreover, the LD50 in the series “Single dose toxicity” was over 2000 mg/kg. This molecule gave an IC50 against hERG [5] of 21.3 µM. This molecule also displayed an IC50 against ERRγ [6] of 0.006 µM. Moreover, the IC50 on ERRγ [7] came to 0.04 µM. Also, the IC50 at hERG [8] is over 10 µM. Besides, in [9], the “MS (% of control) d” value is 50 % of control. In series [10], the “Caerulein-induced acute pancreatitis, overall outcome” value was “rescues mice”. Moreover, the Serum amylase entry in [10] (24 h before and at start of Caerulein, vs Caerulein alone) is “dramatic reduction”. Further, in series [10] (vs Caerulein alone), the “Pancreatic histopathology (H&E)” value is on record as “dramatically improved”, the “Pancreatic tissue trypsin activity” value is on record as “dramatic reduction” and the Serum lipase entry was “dramatic reduction”. In the series “Water solubility”, this molecule gave a solubility of over 1000 µg/mL. For the same molecule, the Papp in the series “Permeability (PAMPA)” was determined as 0.46 ×10⁻⁶ cm/s. Further, in “Plasma stability r”, the “Plasma Stability (% of remaining after 2 h) r” value turned out to be 97.1%. Moreover, the “Plasma Stability (% of remaining after 2 h) h” value in the series “Plasma stability h” was 92.1%.
Turning to `OCCC/C(=C(\c1ccc(O)cc1)c1ccc(C2CCN(C3CC3)CC2)cc1)c1ccccc1` [DMRC200699, (E)-5-(4-hydroxyphenyl)-5-(4-(N-cyclopropylpiperidin-4-yl)phenyl)-4-phenylpent-4-en-1-ol], in series [3], the “MS (% of control) m” value was 84 % of control. In addition, the “MS (% of control) r” value in [4] is listed as 92 % of control. Besides, in “PK”, the maximum concentration (Cmax) is 380 nM, the “PK BA %” value is 46%, the clearance came out at 68 mL/min/kg and the half-life is 3 h. In “PK”, the Vd worked out at 12 L/kg, the “PK iv AUC” value turned out to be 0.50 μMh and the “PK po AUC” value was found to be 2.24 μMh. Moreover, in [9], the “MS (% of control) d” value is 92 % of control. For the same molecule, in the series “Water solubility”, the solubility was over 1000 µg/mL. Further, in the series “Permeability (PAMPA)”, the Papp is 0.35 ×10⁻⁶ cm/s.
`OCCC/C(=C(/c1ccc(C2CCN(C3CC3)CC2)cc1)c1cccc(O)c1)c1ccccc1` [DMRC200966, (E)-5-(5-hydroxyphenyl)-5-(4-(N-cyclopropylpiperidin-4-yl)phenyl)-4-phenylpent-4-en-1-ol]: at ERα, the IC50 is over 10 µM. Besides, the “CYP (% remaining at 10 μM), All” value in the series with CYP was “OK All >83%”. Further, in series [2], the “MS (% of control) h” value is recorded as 62 % of control. Further, the “MS (% of control) m” value in series [3] is given as 25 % of control. The molecule further showed an IC50 at ERRα of over 10 µM. The “MS (% of control) r” value in series [4] was 50 % of control. Besides, in the series “PK”, the Cmax came to 1510 nM, the “PK BA %” value is recorded as 58.2%, the clearance turned out to be 45 mL/min/kg and the half-life was 1.8 h. Further, in the series “PK”, the Vd turned out to be 4.6 L/kg, the “PK iv AUC” value was 0.85 μMh and the “PK po AUC” value is 4.93 μMh. This molecule also returned an IC50 against hERG [5] of over 30 µM. Further, on hERG [8], the IC50 turned out to be 17 µM. In addition, the “MS (% of control) d” value in series [9] was 57 % of control. This molecule also came in with a solubility in the series “Water solubility” of over 1000 µg/mL. Further, the Papp in “Permeability (PAMPA)” amounted to 0.014 ×10⁻⁶ cm/s.
Consider `CC(C)N1CCN(c2ccc(/C(=C(/CCCO)c3ccccc3)c3cccc(O)c3)cc2)CC1` [DMRC2001000, (E)-5-(5-hydroxyphenyl)-5-(4-(4-isopropylpiperazin-1-yl)phenyl)-4-phenylpent-4-en-1-ol], for which, on CYP 2C9, the “CYP (% remaining at 10 μM) 2C9” value is 76%. Also, the “CYP (% remaining at 10 μM) 2C19” value at CYP 2C19 amounted to 100%. In series [2], the “MS (% of control) h” value was 65 % of control. Further, the “MS (% of control) m” value in [3] was 27 % of control. Besides, in [4], the “MS (% of control) r” value is reported as 55 % of control. Further, in the series “PK”, the “PK iv AUC” value was 0.99 μMh and the “PK po AUC” value is listed as 4.18 μMh. Further, the LD50 in the series “Single dose toxicity” is over 2000 mg/kg. For the same molecule, the “CYP (% remaining at 10 μM) 2D6” value at CYP 2D6 turned out to be 66%. On CYP 1A2, the “CYP (% remaining at 10 μM) 1A2” value turned out to be 100%. For the same molecule, the “CYP (% remaining at 10 μM) 3A4” value on CYP 3A4 is on record as 3A4(48) %. Further, in series [9], the “MS (% of control) d” value is given as 61 % of control. This molecule also showed a solubility in the series “Water solubility” of over 1000 µg/mL. Further, the “Permeability (PAMPA)” value in “Permeability (PAMPA)” was 1.29 10^−6 cm/s.
As for `CN(C)CCOc1ccc(/C(=C(/CCCO)c2ccccc2)c2ccc(O)cc2)cc1` [GSK5182, reference compound], the “CYP (% remaining at 10 μM), All” value with CYP is given as “OK All >73%”. Moreover, the “MS (% of control) h” value in series [2] is 43 % of control. For the same molecule, the “MS (% of control) m” value in [3] is recorded as 7 % of control. The “MS (% of control) r” value in series [4] is given as 26 % of control. Further, in the series “PK”, the “PK BA %” value worked out at 8.4%, the clearance was determined as 44 mL/min/kg, the “PK iv AUC” value was determined as 0.89 μMh and the “PK po AUC” value came out at 0.68 μMh. Also, the “MS (% of control) d” value in series [9] is 10 % of control. The same molecule yielded a solubility in the series “Water solubility” of over 1000 µg/mL.
